Source: patent publication US20150290148A1 (priority 2006, published 2015)
Entries after “also recorded” stand apart in the source; their conditions may differ.

Key:
[1] = rats; cited from earlier work
[2] = tested on: neurotrophic factor 3; assay: Quantitative real time PCR of hippocampal gene expression after IP injection; format: in vivo, Sprague-Dawley rats; conditions: 6 hours after single IP 1.0 mg/kg, vs saline
[3] = tested on: male Wistar rats; assay: MCA embolic stroke in rats, foot fault; format: in vivo, rat; conditions: 1.0 mg/kg/hr, started 0, 6 or 12 hours after stroke
[4] = tested on: hippocampal CA1 region; assay: Gerbil 5-min 2-VO transient cerebral ischemia, histological rating of hippocampal CA1; format: in vivo; conditions: for damage to hippocampal CA1 following ischemic insult: MAP 5 mg/kg 1-2 minutes after ischemic insult
Procedure: (§1) Gerbils were anesthetized with isoflurane and core-body temperature maintained at 37-38 C during surgery using a homeothermic blanket (Harvard Apparatus, South Natick, USA). A midline incision was made in the neck and the common carotid arteries were isolated and occluded for 5 min using 85-gm pressure aneurysm clips (ISCH; n=14). A second group of gerbils (SHAM; n=14) underwent the identical procedure except the carotid arteries were not clamped. The incision was sutured and animals received MAP (5 mg/kg; i.p) or equal volume of vehicle (saline; 0 mg) within 2 minutes of reperfusion. Animals were placed in a warmed cage, and observed for 30 minutes. Tylenol (8 mg/ml) was added to drinking water to provide postoperative analgesia.
(§2) Each gerbil was tested 48 hrs following surgery in an open-field apparatus consisting of a metal screen floor 77 cm×77 cm with walls 15 cm in height. Animals were placed in the center region and permitted to explore the novel environment for 5 minutes. Behavioral data (distance traveled, speed) were collected using an automated tracking system (ANY-maze, Stoelting, Ill.) and evaluated separately using ANOVA and the appropriate post hoc test (P<0.05 considered significant). Twenty-one days postsurgery, gerbils were euthanized with CO2 and perfused with phosphate buffered saline followed by 4% paraformaldehyde. Tissue from sham gerbils treated with MAP ([…]) was not evaluated since acute administration of MAP was not expected to histologically alter the hippocampus of this group. Brains were removed and post-fixed for at least 48 hrs prior to collection of 40 μm vibratome sections through the hippocampal region. Sections were mounted on slides and stained with cresyl violet. Damage to the hippocampal CA1 region was evaluated without knowledge of treatment condition by two independent observers using a 4 point rating scale described elsewhere (Babcock et al. 1993). A score of 0 (4-5 compact layers of normal neuronal bodies), 1 (4-5 compact layers with presence of some altered neurons), 2 (spares neuronal bodies with “ghost spaces” and/or glial cells between them), 3 (complete absence or presence of only rare normal neuronal bodies with intense gliosis of the CA1 subfield) was assigned for each animal. Ratings were averaged and evaluated using nonparametric statistics (Kruskal-Wallis and Mann-Whitney U test; P<0.05 considered significant).

[5] = tested on: neuropeptide Y; assay: Quantitative real time PCR of hippocampal gene expression after IP injection; format: in vivo, Sprague-Dawley rats; conditions: 6 hours after single IP 1.0 mg/kg, vs saline
[6] = tested on: gerbils; assay: Gerbil 5-min 2-VO transient cerebral ischemia, open field activity; format: in vivo; conditions: for distance traveled in open field: tested 48 hrs after surgery, 5 min
Procedure: as §1, §2

[7] = tested on: BcL2; assay: Quantitative real time PCR of hippocampal gene expression after IP injection; format: in vivo, Sprague-Dawley rats; conditions: 6 hours after single IP 1.0 mg/kg, vs saline
[8] = tested on: male Wistar rats; assay: Traumatic brain injury (fluid percussion) in rats, tolerability; format: in vivo, rat; conditions: 0.5 mg/kg/hr 24 hr IV infusion plus bolus after TBI
Procedure: Three groups of male Wistar rats/group were used in this study. The animals were given 0 (vehicle control; saline), 0 (sham controls) or 0.5 mg/kg/hr MA via a 24 hr continuous IV infusion starting 3 hr after […] on Day 0. The test article was administered via an Alzet mini-osmotic pump at a rate of 0.0073 mL/hour. The dose concentration of MA loaded in the Alzet pump varied between animals (45.8-65.0 mg/mL), and was based on individual animal body weight on Day 0 and the dose concentration that would yield 0.5 mg/kg/hr MA at an infusion rate of 0.0073 mL/hr. Dosing of the animals was staggered over a 4-month period.
Prior to test article administration, all rats were subjected to a surgical procedure to produce a fluid percussion injury. Adult Sprague-Dawley rats (male, 350-500 g) are anesthetized with isoflurane anesthesia (1% isofluorane in 1 L/min O2) via face mask to effect for a small craniectomy (4.80 mm) and placement of a rigid Luer-loc needle hub (3 mm inside diameter). After luer lock hub placement, the hub is connected to the Cell Injury Controller through high pressure rubber tubing that delivers an fluid pulse to the dura. […] The righting reflex time after injury was recorded. […] Animals were monitored 3-4 times a day for the first 48 hr following surgery and daily thereafter for 14 days.

[9] = tested on: interleukin 10 (IL10) gene; assay: Quantitative real time PCR of hippocampal gene expression after IP injection; format: in vivo, Sprague-Dawley rats
[10] = tested on: male Wistar rats; assay: MCA embolic stroke in rats, infarct size by TTC staining; format: in vivo, rat
[11] = tested on: male Wistar rats; assay: MCA embolic stroke in rats, modified neurological severity score / neurobehavioral outcomes
Excerpt: Male Wistar rats at ages of 8-12 weeks, weighing 300-450 g were used in all experiments. A donor rat was anesthetized with 3.5% Isoflurane, and anesthesia was maintained with 1.0-1.5% Isoflurane in 70% N2O and 30% O2 using a face mask. […] Rats were then anesthetized with 3.5% Isoflurane, and anesthesia was maintained with 1.0-1.5% Isoflurane in 70% N2O and 30% O2 using a face mask throughout the surgical procedure. The animal's muzzle was placed in the face mask 2 cm from the surgical site. Rectal temperature was maintained at 37±″0.5° C. throughout the surgical procedure using an electric heating system. Under a surgical operating microscope) the right common carotid arteries (CCA), the right external carotid artery (ECA) and the internal carotid artery (ICA) were isolated via a 3 cm ventral neck midline incision. A 6-0 silk suture was loosely tied at the origin of the ECA and ligated at the distal end of the ECA. The right CCA and ICA was temporarily clamped using a curved microvascular clip (Codman & Shurtleff, Inc., Randolf, MAP, USA). A modified PE-50 catheter filled with a single clot (˜1 μl), was attached to a 100-μl Hamilton syringe, and introduced into the ECA lumen through a small puncture. The suture around the origin of the ECA was tightened around the intraluminal catheter to prevent bleeding, and the microvascular clip was removed. The catheter was gently advanced from the ECA into the lumen of the ICA. The clot along with 5 μl of saline in the catheter was injected into the ICA over 10 seconds. The catheter was withdrawn from the right ECA immediately after injection. The right ECA was ligated. The duration of the entire surgical procedure was approximately 25 min.
Implantation of osmotic pumps for the purpose of continuous IV infusion occurred at both 6 and 12 hours after delivery of the 4cm clot. Experimental control for the experiment was achieved by substituting methamphetamine for physiological saline. Briefly, at 6 or 12 hours post stroke animals were re-anesthetized using 1-3% isoflurane. After a state of anesthesia was achieved the right side groin area was shaved. After shaving, surgical tape was utilized to remove excess hair. The area was scrubbed with betadine and allowed to dry.
A small incision was made and the groin area was blunt dissected to expose the femoral vein. The femoral vein was separated with surgical tweezers and the distal end was permanently ligated using 6-0 silk thread. The proximal end was ligated and a 0.2 mm incision (approximate) was made in the femoral vein. A 2.5 cm length of polyvinyl tubing (OD 0.07mm) connected to a pre-loaded osmotic pump (Alzet Corp. model 2001D; 6.6 microliters per hour for 24 hrs) was inserted into the vein and gently pushed up towards midline of the body. The tubing was inserted until 0.5 cm was exposed from the vein. The tubing was tied around the vein in two locations using 6-0 silk spaced approximately 2 mm apart. A small pocket was blunt dissected along the groin/abdominal area. The osmotic pump was inserted into the area on the outer wall of the abdomen underneath the skin and sutured into the abdominal fascia using 4-0 synthetic suture. The incision was closed using 4-0 synthetic suture. At 48-72 hours after initial insertion the animal was anesthetized, the groin area was scrubbed with betadine, the incision was reopened, blunt dissected, and the pump exposed. The sutures holding the pump and tubing in place were cut, the pump removed, and the femoral vein was permanently ligated using 6-0 silk suture. The pump was discarded and the incision was closed using 4-0 synthetic suture.

[12] = tested on: interleukin 6 (IL6) gene; assay: Quantitative real time PCR of hippocampal gene expression after IP injection; format: in vivo, Sprague-Dawley rats; conditions: 6 hours after single IP 1.0 mg/kg
[13] = tested on: gerbils; assay: Preliminary dose study and observations in gerbils following surgery; format: in vivo, gerbil
[14] = tested on: male Wistar rats; assay: MCA embolic stroke in rats, adhesive tape removal test; format: in vivo, rat
[15] = tested on: brain derived neurotrophic factor; assay: Quantitative real time PCR of hippocampal gene expression after IP injection; format: in vivo, Sprague-Dawley rats; conditions: 6 hours after single IP 1.0 mg/kg, vs saline
[16] = 0.1 mg/kg/hr IV infusion 24 hrs, immediately after stroke
[17] = 1.0 mg/kg/hr IV infusion 24 hrs, started 6 hours after stroke
[18] = 1.0 mg/kg/hr IV infusion 24 hrs, started 6 hours after stroke, listed as MAP
[19] = 1.0 mg/kg/hr IV infusion 24 hrs, started 12 hours after stroke, listed as MAP
[20] = 0.5 and 1.0 mg/kg/hr IV infusion 24 hrs, immediately after stroke
[21] = 0.5 and 1.0 mg/kg/hr IV infusion 24 hrs, immediately after stroke, listed as MAP

In the case of `CN[C@@H](C)Cc1ccccc1` [methamphetamine], the half-life [1] is given as “approximately 1 hr”, the “change in neurotrophic factor 3 gene expression in hippocampus” value [2] is given as “+192%” and the foot fault values [3] is given as “significant improvements in foot fault values”. For the same compound, the “histological rating score of hippocampal CA1 damage (0-3 scale)” value ([4]; ISCH+5 mg MAP group, 21 days after ischemic insult) was 0.07±0.07, the “damage to hippocampal CA1 following ischemic insult” value ([4]; 21 days) was “significantly reduced damage to the hippocampal CA1; also recorded: failed to exhibit any damage to the hippocampus” and the “damage to hippocampal CA1 following ischemic insult” value ([4]; 21 days, listed as MAP) was “prevented any significant loss of hippocampal CA1 pyramidal cells”. For the same compound, the “animals with any detectable neuronal pathology in the hippocampus” value ([4]; ischemic gerbils treated with MAP 5 mg/kg, 21 days) was 1 of 7, the “change in neuropeptide Y gene expression in hippocampus” value [5] was “+192%” and the “open field activity, SHAM+5 mg vs SHAM+0 mg” value ([6]; MAP 5 mg/kg i.p., 48 hrs after surgery) was “failed to significantly alter activity levels”. The “open field activity, ischemic vs sham gerbils both treated with MAP” value ([6]; MAP 5 mg/kg i.p., 48 hrs after surgery, listed as MAP) was “not significantly different; also recorded: comparable to control levels”, the “distance traveled in open field” value ([6]; ischemic gerbils, MAP 5 mg/kg i.p. within 2 min of reperfusion) was 66.3 m and the “distance traveled in open field” value ([6]; sham gerbils, MAP 5 mg/kg i.p.) was 72.7 m. For the same compound, the “change in BcL2 gene expression in hippocampus” value [7] was “+167%”, the tolerability [8] was “well tolerated with no toxicity” and the “change in IL10 gene expression in hippocampus” value ([9]; 1 hour after single IP 1.0 mg/kg, vs saline) was 445%. For the same compound, the “IL10 expression in hippocampus vs saline” value ([9]; 6 hours after single IP 1.0 mg/kg) was “not significantly different from saline treated animals”, the “infarct size / infarct volume at 7 days” value [10, 16] was “No significant reductions in infarct volumes” and the “infarct size / infarct volume at 7 days” value ([10]; 0.1 mg/kg/hr IV infusion 24 hrs, immediately after stroke, listed as MAP) was “failed to decrease the infarct size”. For the same compound, the “infarct size / infarct volume at 7 days” value [10, 17] was “significant reduction in infarct volumes; also recorded: significantly reduces infarct size”, the “infarct size / infarct volume at 7 days” value [10, 18] was “significantly reduced infarct size” and the “infarct size / infarct volume at 7 days” value [10, 19] was “still significantly reduces infarct size”. For the same compound, the “infarct size / infarct volume at 7 days” value [10, 20] was “reduces brain damage (infarct size); also recorded: significant reduction in infarct volumes”, the “infarct size / infarct volume at 7 days” value [10, 21] was “decreased infarct size” and the “infarct size / infarct volume at 7 days” value ([10]; 0.5 and 1.0 mg/kg/hr IV infusion 24 hrs, immediately after stroke, listed as Methamphetamine) was “decreases infarct size”. For the same compound, the “animals with substantial reduction in infarct volumes” value ([10]; infusion beginning 12 hours after stroke) was “Four out of the nine”, the “neurobehavioral outcomes (neurological severity score)” value [11, 16] was “improved neurobehavioral outcomes” and the “neurobehavioral outcomes (neurological severity score)” value [11, 17] was “significant improvement in neurological severity scores; also recorded: significantly decreased neurobehavioral deficits”. The “neurobehavioral outcomes (neurological severity score)” value [11, 18] was “improved neurobehavioral outcomes on all testing parameters”, the “neurobehavioral outcomes (neurological severity score)” value ([11]; 1.0 mg/kg/hr IV infusion 24 hrs, started 12 hours after stroke) was “significant improvement in neurological severity scores; also recorded: significantly decreased neurobehavioral deficits” and the “neurobehavioral outcomes (neurological severity score)” value [11, 19] was “robust effect on neurobehavioral outcomes”. The “neurobehavioral outcomes (neurological severity score)” value [11, 20] was “significant improvement in neurological severity scores”, the “neurobehavioral outcomes (neurological severity score)” value [11, 21] was “improved neurobehavioral outcomes” and the “IL6 expression in hippocampus vs saline” value [12] was “not significantly different from saline treated animals”. For the same compound, the “lethality in gerbils following surgery” value ([13]; doses greater than 5 mg/kg (10 and 20 mg/kg)) was “lethal”, the “clinical observation after treatment” value ([13]; gerbils, MAP 5 mg/kg i.p. after surgery) was “became piloerect with their tails pointing up” and the “time to remove adhesive tape, day 7 vs day 1” value (“time … vs day 1” for short) [14, 16] was “no significant change in the time to remove tape”. The “time … vs day 1” value ([14]; 1 mg/kg/hr started 6 hours after stroke) was “improvement in function was still observed”, the “time … vs day 1” value ([14]; 1 mg/kg/hr withheld until 12 hours after stroke (data not shown)) was “failed to produce an effect” and the “time … vs day 1” value ([14]; 0.5 or 1.0 mg/kg/hr IV infusion 24 hrs, immediately after stroke) was “required significantly less time to remove the tape”. The “change in brain derived neurotrophic factor gene expression in hippocampus” value [15] was “+141%”.
